Measurements from patent publication US11672811B2, “Materials and methods for suppressing and/or treating bone related diseases and symptoms” (Indiana University Research and Technology Corporation, priority 2017, dated 2023).
Square brackets hold non-standard residues; d marks the D form. Peptide text beside a SMILES is read from it. * marks the point of attachment. ξ: configuration not given here. Cbz = O=C(OCc1ccccc1)*; ξL = CC(C)CC(N)C(=O)O

Assays:
[1] = test system: Notch target gene expression (Hes1); assay: Notch target gene expression in 5TGM1 myeloma cells in vitro; format: cell-based; conditions: for inhibition of Notch target gene expression: compounds pre-incubated at low pH to mimic acidic conditions in resorption sites, myeloma cells; for Notch target gene expression (Hes1-Hey1): in vitro, 5TGM1 myeloma cells, not pre-incubated
Source text: FIG. 1A. Graphs illustrating the effect on Notch target gene expression. In vitro, the control unconjugated GSI decreased Notch target gene expression (Hes1-Hey1) but BT-GSI-XII had no effect.
FIG. 1B. A graph illustrating the effect on Notch target gene expression.
(§1) Referring now to FIG. 1A, the control unconjugated GSI decreased Notch target gene expression (Hes1) in 5TGM1 myeloma cells, but BT-GSI-XII had no effect in vitro. […] (FIG. 1E).

Hes1/5 expression = assay: Ex vivo whole bone organ cultures, Hes1/5 expression; format: cell-based; conditions: compounds non-pre-incubated
Source text: FIG. 1C. A schematic drawing illustrating an exemplary ex vivo system.
as §1

[2] = test system: Rankl-induced osteoclast differentiation; assay: Rankl-induced osteoclast differentiation in vitro; format: cell-based; conditions: read-out: EC50, reduction of Rankl-induced osteoclast differentiation
Procedure: (§2) No changes were found in M-Csf expression. Additionally, unconjugated GSI reduced Rankl-induced osteoclast differentiation in vitro with an EC50˜0.1 μM (FIG. 12D). Further, the bone-targeting molecule alone required a dose 10 times higher than GSI to decreased osteoclastogenesis. Referring now to FIG. 13, co-administration of BT-GSI decreased iPTH-induced elevated serum P1NP (e.g., about 30% decrease); however, the co-administration of BT-GSI maintained the iPTH-induced elevated bone formation rate (20%) and osteoblast number/surface (20%) in cancellous bone (FIG. 13B-C). Further, mice receiving iPTH alone or combined with BT-GSI induced elevated mRNA levels of Alp1, Runx2, Bglap, and Wnt target genes, and reduced mRNA level of Sost in bone (FIG. 13 D-E).

4-mo-old mice = assay: Co-administration of BT-GSI with daily PTH injections (iPTH) in mice: bone mass, resorption and formation; format: in vivo
Procedure: (§3) To investigate whether a combination of iPTH (anabolic) and BT-GSI (anti-catabolic) increases bone mass to a higher extent than either agent alone, BT-GSI (5 mg/kg, 3×/wk) or saline was co-administered with iPTH (100 ng/g/day) or vehicle for 2 wks to 4-mo-old mice (n=10/group).
as §2

[3] = test system: normal 4-month old female mice; assay: In vivo administration of BT-GSI-XII to normal mice: BMD, microCT, serum bone markers, osteoclasts/osteoblasts, bone cytokine and osteoblast marker mRNA
Source text: Daily injections of PTH (iPTH) are thought to cause bone anabolism by increasing osteoblast number and function. However, iPTH can also increase bone resorption, which can limit bone gain. iPTH activates Notch signaling in osteocytes; and bone-targeted Notch inhibition using a γ-secretase inhibitor (GSI) conjugated to an alendronate-modified bone-targeting molecule (BT-GSI) decreases Notch signaling in bone, and reduces CTX (−40%) while preserving bone formation, leading to increases in BMD (4-7%) and cancellous bone volume (BV/TV; 30%).

[4] = test system: normal 4-month old female mice; assay: In vivo administration of BT-GSI-XII to normal mice: tolerability, skin, gut toxicity biomarker
[5] = test system: Notch target genes Hes1/5/7 and Hey1/L; assay: Co-administration of BT-GSI with iPTH in mice: Notch target gene expression in bone, brain, gut; format: in vivo; conditions: 2 wks
Procedure: as §3

Notch target genes = assay: Notch target gene mRNA in bone, brain and gut of BT-GSI treated mice; format: in vivo; conditions: compared to vehicle-treated mice
Source text: FIG. 2A. Graphs illustrating the effect on Notch target genes.
FIG. 2B. Graphs illustrating the effect on Notch target genes.
as §1

[6] = BT-GSI 5 mg/kg 3×/wk co-administered with iPTH, 2 wks
[7] = BT-GSI co-administered with iPTH
[8] = BT-GSI co-administered with iPTH, cancellous bone
[9] = serum, 5 μg/g, 3×wk, 2 weeks, mice
[10] = 5 μg/g, 3×wk, 2 weeks, normal 4-month old female mice
[11] = single agent (iPTH 100 ng/g/day or BT-GSI 5 mg/kg 3×/wk)

**Q.** For `CC[C@H](C)[C@H](NC(=O)OCc1ccccc1)C(=O)NC(C=O)CC(C)C` (stereo partly drawn) [GSI-XII, reference compound] (Cbz-Ile-[ξL]-aldehyde), which “inhibition of Notch target gene expression” value [1] is on record?
**A.** equal inhibition

**Q.** What about the Hes1/5 expression (Hes1/5 expression) of the same molecule?
**A.** similarly decreased

**Q.** Which results are given for `CC[C@H](C)[C@H](NC(=O)OCc1ccccc1)C(=O)N[C@H](C=O)CC(C)C` [GSI-XII, reference compound] (Cbz-Ile-Leu-aldehyde)?
**A.** Notch target gene expression (Hes1-Hey1) [1]: decreased; EC50 [2]: ~100 nM

**Q.** What does the source list for `CC[C@H](C)[C@H](NC(=O)OCc1ccccc1)C(=O)NC(/C=N/N(C)CCCC(=O)NC(P(=O)(O)O)P(=O)(O)O)CC(C)C` (stereo partly drawn) [BT-GSI-XII]?
**A.** increase in femoral BMD (4-mo-old mice; [6]): 17%; increase in spinal BMD (4-mo-old mice; [6]): 7%; increase in total BMD (4-mo-old mice; [6]): 10%; additional increase in cancellous BV/TV (L4 and distal femur) compared to the iPTH-induced increase (4-mo-old mice; [7]): 25%; additional increase in trabecular thickness compared to the iPTH-induced increase (4-mo-old mice; [7]): 25%; decrease of iPTH-induced elevated serum P1NP (4-mo-old mice; [7]): about 30%; effect on iPTH-induced increase in cortical bone area (4-mo-old mice; [7]): did not alter; iPTH-induced elevated Rankl/Opg expression ratio in bone (4-mo-old mice; [7]): remained unchanged; serum CTX level (4-mo-old mice; [7]): less than those exhibited in control mice; iPTH-induced elevated bone formation rate (4-mo-old mice; [8]): maintained; iPTH-induced elevated osteoblast number/surface (4-mo-old mice; [8]): maintained; osteoclast number/surface level (4-mo-old mice; [8]): less than those exhibited in control mice; mRNA level of Sost in bone (4-mo-old mice; iPTH combined with BT-GSI): reduced; mRNA levels of Alp1, Runx2, Bglap, and Wnt target genes in bone (4-mo-old mice; iPTH combined with BT-GSI): elevated; higher femoral BMD compared to control mice ([3]; 5 μg/g, 3×wk, 2 weeks, mice): 4%; higher spinal BMD compared to control mice ([3]; 5 μg/g, 3×wk, 2 weeks, mice): 7%; higher total BMD compared to control mice ([3]; 5 μg/g, 3×wk, 2 weeks, mice): 3%; increased cancellous bone volume (BV/TV) compared to vehicle-treated mice ([3]; microCT analysis): 25%; increased trabecular thickness compared to vehicle-treated mice ([3]; microCT analysis): 10%; increased cancellous bone volume (BV/TV) compared to vehicle-treated mice ([3]; microCT analysis, listed as BT-GSI): 30%; circulating levels of the bone formation marker P1NP [3, 9]: did not affect; decrease of serum CTX, a marker of bone resorption [3, 9]: 40%; increases in BMD ([3]; summary statement, sites not named): 4-7%; bone formation and mineral apposition rates ([3]; treated mice): remained unchanged; decrease in the bone surface covered by osteoclasts compared to control mice ([3]; treated mice): 50%; number of osteoblasts ([3]; treated mice): remained unchanged; Opg mRNA expression in bone ([3]; treated mice vs vehicle): increased; Rankl/Opg ratio in bone ([3]; treated mice vs vehicle): decreasing; Opg mRNA expression in bone ([3]; treated mice vs vehicle, listed as BT-GSI): upregulated; expression of osteoblast markers, including Wnt target genes and the osteocyte-derived Sost/Sclerostin ([3]; treated mice, bone): remained unchanged; bone formation and mineral apposition rates ([3]; treated mice, listed as BT-GSI): preserving; inhibition of Notch target gene expression [1]: equal inhibition; Notch target gene expression (Hes1-Hey1) [1]: no effect; Hes1/5 expression (Hes1/5 expression): similarly decreased; skin issues [4, 10]: no skin issues were observed; tolerability [4, 10]: well tolerated; Apsidin expression in the gut, a biomarker of gastrointestinal toxicity ([4]; treated mice vs vehicle, gut): did not increase; iPTH-induced elevated expression of Hes1/5/7 and Hey1/L in bone ([5]; BT-GSI 5 mg/kg 3×/wk co-administered with iPTH 100 ng/g/day): decreased the iPTH-induced elevated expression of Hes1/5/7 and Hey1/L to a level comparable to the control mice; expression of Notch target genes in brain or gut [5, 11]: remained unchanged; expression of Notch target genes in brain or gut ([5]; the combination of iPTH and BT-GSI): remained unchanged; Notch target gene mRNA expression in brain or gut (Notch target genes; brain, gut): not in brain or gut; Notch target gene (Hey2, Hes5, Hes7, HeyL) mRNA expression in bone (Notch target genes; whole bone preparations): decreases

B1: iPTH: daily injections of PTH (parathyroid hormone) (protein, UniProt P01270 32-115, looked up)
Parathyroid hormone: SVSEIQLMHNLGKHLNSMERVEWLRKKLQDVHNFVALGAPLAPRDAGSQRPRKKEDNVLVESHEKSLGEADKADVNVLTKAKSQ
modifications: Parathyroid hormone
**Q.** Which “increase in femoral BMD” value (4-mo-old mice; iPTH 100 ng/g/day alone, 2 wks) does the source give for B1 here?
**A.** 13%

**Q.** What about the “increase in total BMD” value (4-mo-old mice; iPTH 100 ng/g/day alone, 2 wks) of the same molecule?
**A.** 7%

**Q.** And the “spinal BMD change” value (4-mo-old mice; iPTH 100 ng/g/day alone, 2 wks)?
**A.** 0%

**Q.** What about the “iPTH-induced elevated Rankl/Opg expression ratio in bone” value (4-mo-old mice; iPTH alone) of the same molecule?
**A.** 1.5 fold

**Q.** What about the “iPTH-induced elevated serum CTX” value (4-mo-old mice; iPTH alone) of the same molecule?
**A.** 30%

**Q.** And the “iPTH-induced increase in cortical bone area” value (4-mo-old mice; iPTH alone)?
**A.** 8%

**Q.** What about the “mRNA level of Sost in bone” value (4-mo-old mice; iPTH alone) of the same molecule?
**A.** reduced

**Q.** And the “mRNA levels of Alp1, Runx2, Bglap, and Wnt target genes in bone” value (4-mo-old mice; iPTH alone)?
**A.** elevated

**Q.** What about the “serum P1NP” value (4-mo-old mice; iPTH alone) of the same molecule?
**A.** elevated

**Q.** And the “iPTH-induced elevated bone formation rate” value (4-mo-old mice; iPTH alone, cancellous bone)?
**A.** 20%

**Q.** And the “iPTH-induced elevated osteoblast number/surface” value (4-mo-old mice; iPTH alone, cancellous bone)?
**A.** 20%

**Q.** What about the “iPTH-induced elevated osteoclast number/surface” value (4-mo-old mice; iPTH alone, cancellous bone) of the same molecule?
**A.** 25%

**Q.** What about the “expression of the Notch target genes Hes1/5/7 and Hey1/L in bone” value ([5]; iPTH 100 ng/g/day alone) of the same molecule?
**A.** increased

**Q.** And the “expression of Notch target genes in brain or gut” value [5, 11]?
**A.** remained unchanged
